Test results: patent US10294246B2, “Substituted boronic acids and boronate esters as immunoproteasome inhibitors” (MERCK PATENT GMBH, priority 2014, dated 2019)

How the values were obtained:
[1] = biological target: human immunoproteasome (LMP7) (Homo sapiens (Human), UniProt P28062); assay: Determination of LMP7 activity (fluorescence intensity assay, Suc-LLVY-AMC); format: biochemical; conditions: for Selectivity LMP7 vs Beta5: LMP7 versus Beta5; for IC50: purified human immunoproteasome 0.25 nM, Suc-LLVY-AMC 40 μM
Summary of the method: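 0.25 nM purified human immunoproteasome preincubated 20 min at 25 °C with serially diluted compounds in 50 mM Tris pH 7.4, 0.03% SDS, 1 mM EDTA, 1% DMSO. Reaction started with 40 μM Suc-LLVY-AMC, run 60 min at 37 °C. Fluorescence read at ex 350/em 450 nm.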

[2] = biological target: human constitutive proteasome (Beta5) (Homo sapiens (Human), UniProt P28074); assay: Determination of Beta5 activity (fluorescence intensity assay, Suc-LLVY-AMC); format: biochemical; conditions: purified human constitutive proteasome 1.25 nM, Suc-LLVY-AMC 40 μM
Summary of the method: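 Purified constitutive proteasome (1.25 nM) was preincubated with compounds 20 min at 25 °C in 50 mM Tris pH 7.4, 0.03% SDS, 1 mM EDTA, 1% DMSO. Suc-LLVY-AMC (40 μM) was then added for 60 min at 37 °C. AMC fluorescence was read at ex 350/em 450 nm.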

Row | Selectivity LMP7 vs Beta5 [1] | IC50 [2] | IC50 [1] | Structure (SMILES)
1 | +++++ (Selectivity ≥ 100) | > 5000 nM | 50 to 500 nM | COc1ccc(CC(=O)N[C@H](C[C@@H]2COc3ccccc32)B(O)O)cc1 [Compound No. 117, [(1S)-2-[(3S)-2,3-dihydrobenzofuran-3-yl]-1-[[2-(4-methoxyphenyl)-acetyl]amino]ethyl]boronic acid]
2 | +++++ (Selectivity ≥ 100) | > 5000 nM | 50 to 500 nM | COc1ccc(CC(=O)N[C@H](C[C@H]2COc3ccccc32)B(O)O)cc1 [Compound No. 118, [(1S)-2-[(3R)-2,3-dihydrobenzofuran-3-yl]-1-[[2-(4-methoxyphenyl)-acetyl]amino]ethyl]boronic acid]
3 | +++++ (Selectivity ≥ 100) | 500 to 5000 nM | < 50 nM | O=C(Cc1ncccc1C(=O)N1CCOCC1)N[C@@H](Cc1coc2ccccc12)B(O)O [Compound No. 119, [(1R)-2-(benzofuran-3-yl)-1-[[2-[3-(morpholine-4-carbonyl)-2-pyridyl]acetyl]amino]ethyl]boronic acid]
4 | +++++ (Selectivity ≥ 100) | 500 to 5000 nM | < 50 nM | COc1ccc(CC(=O)N[C@@H](C[C@@H]2COc3c(OC)cccc32)B(O)O)cc1 [Compound No. 120, [(1R)-2-[(3S)-7-methoxy-2,3-dihydrobenzofuran-3-yl]-1-[[2-(4-methoxyphenyl)acetyl]amino]ethyl]boronic acid]
5 | +++++ (Selectivity ≥ 100) | 500 to 5000 nM | < 50 nM | O=C(Cc1ccccc1)NC(Cc1coc2c(F)cccc12)B(O)O (centres unmarked) [Compound No. 121, [2-(7-fluorobenzofuran-3-yl)-1-[(2-phenylacetyl)amino]ethyl]boronic acid]
6 | +++++ (Selectivity ≥ 100) | 500 to 5000 nM | < 50 nM | N#Cc1cccc(CC(=O)N[C@@H](Cc2coc3ccccc23)B(O)O)c1 [Compound No. 123, [(1R)-2-(benzofuran-3-yl)-1-[[2-(3-cyanophenyl)acetyl]amino]ethyl]-boronic acid]
7 | +++++ (Selectivity ≥ 100) | > 5000 nM | < 50 nM | Cc1cccc2c1OC[C@H]2C[C@H](NC(=O)Cc1ccccc1)B(O)O [Compound No. 124, [(1R)-2-[(3S)-7-methyl-2,3-dihydrobenzofuran-3-yl]-1-[(2-phenylacetyl)amino]ethyl]boronic acid]
8 | +++++ (Selectivity ≥ 100) | 50 to 500 nM | < 50 nM | O=C(Cc1ccccc1)N[C@@H](Cc1coc2c(F)cccc12)B(O)O [Compound No. 125, [(1R)-2-(7-fluorobenzofuran-3-yl)-1-[(2-phenylacetyl)amino]ethyl]-boronic acid]
9 | +++++ (Selectivity ≥ 100) | 500 to 5000 nM | < 50 nM | Cc1c(Cl)ccc2c(C[C@H](NC(=O)Cc3ccccc3)B(O)O)coc12 [Compound No. 126, [(1R)-2-(6-chloro-7-methyl-benzofuran-3-yl)-1-[(2-phenylacetyl)-amino]ethyl]boronic acid]
10 | ++ (10 ≤ Selectivity < 50) | > 5000 nM | 500 to 5000 nM | Cc1cccc2c1OC[C@@H]2C[C@H](NC(=O)Cc1ccccc1)B(O)O [Compound No. 127, [(1R)-2-[(3R)-7-methyl-2,3-dihydrobenzofuran-3-yl]-1-[(2-phenylacetyl)amino]ethyl]boronic acid]
11 | +++++ (Selectivity ≥ 100) | > 5000 nM | < 50 nM | Cc1ccc(C)c2c(C[C@H](NC(=O)Cc3ccccc3)B(O)O)coc12 [Compound No. 128, [(1R)-2-(4,7-dimethylbenzofuran-3-yl)-1-[(2-phenylacetyl)-amino]ethyl]boronic acid]
12 | +++++ (Selectivity ≥ 100) | 500 to 5000 nM | < 50 nM | COc1ccc(CC(=O)N[C@@H](Cc2coc3c(C)ccc(C)c23)B(O)O)cc1 [Compound No. 129, [(1R)-2-(4,7-dimethylbenzofuran-3-yl)-1-[[2-(4-methoxyphenyl)-acetyl]amino]ethyl]boronic acid]
13 | +++++ (Selectivity ≥ 100) | > 5000 nM | < 50 nM | Cc1cccc2c1OC[C@H]2C[C@H](NC(=O)Cc1ccccc1C#N)B(O)O [Compound No. 130, [(1R)-1-[[2-(2-cyanophenyl)acetyl]amino]-2-[(3S)-7-methyl-2,3-dihydrobenzofuran-3-yl]ethyl]boronic acid]

The remaining lines, values behind:

Row | Structure (SMILES) | Selectivity LMP7 vs Beta5 [1] | IC50 [2] | IC50 [1]
14 | CC(=O)Nc1ccccc1CC(=O)N[C@@H](Cc1coc2ccccc12)B(O)O [Compound No. 103, [(1R)-1-[[2-(2-acetamidophenyl)acetyl]amino]-2-(benzofuran-3-yl)ethyl]boronic acid] | ++++ (70 ≤ Selectivity < 100) | 500 to 5000 nM | –
15 | Cc1cccc2c(C[C@H](NC(=O)Cc3ccccc3C#N)B(O)O)coc12 [Compound No. 104, [(1R)-1-[[2-(2-cyanophenyl)acetyl]amino]-2-(7-methylbenzofuran-3-yl)ethyl]boronic acid] | +++++ (Selectivity ≥ 100) | 500 to 5000 nM | < 50 nM
16 | N#Cc1ccccc1CC(=O)N[C@@H](C[C@@H]1COc2ccccc21)B(O)O [Compound No. 105, [(1R)-1-[[2-(2-cyanophenyl)acetyl]amino]-2-[(3S)-2,3-dihydrobenzofuran-3-yl]ethyl]boronic acid] | +++++ (Selectivity ≥ 100) | 500 to 5000 nM | < 50 nM
17 | C[C@H](C(=O)N[C@@H](C[C@H]1COc2ccccc21)B(O)O)c1ccccc1C(=O)N(C)C [Compound No. 106, [(1R)-2-[(3R)-2,3-dihydrobenzofuran-3-yl]-1-[[(2S)-2-[2-(dimethylcarbamoyl)phenyl]propanoyl]amino]ethyl]boronic acid] | +++++ (Selectivity ≥ 100) | > 5000 nM | < 50 nM
18 | C[C@H](C(=O)N[C@@H](C[C@@H]1COc2ccccc21)B(O)O)c1ccccc1C(=O)N(C)C [Compound No. 107, [(1R)-2-[(3S)-2,3-dihydrobenzofuran-3-yl]-1-[[(2S)-2-[2-(dimethylcarbamoyl)phenyl]propanoyl]amino]ethyl]boronic acid] | ++ (10 ≤ Selectivity < 50) | > 5000 nM | 500 to 5000 nM
19 | COc1ccc(CC(=O)N[C@@H](Cc2cc3ccccc3o2)B(O)O)cc1 [Compound No. 108, [(1R)-2-(benzofuran-2-yl)-1-[[2-(4-methoxyphenyl)acetyl]-amino]ethyl]boronic acid] | +++++ (Selectivity ≥ 100) | 500 to 5000 nM | < 50 nM
20 | CCO[C@@H](C(=O)N[C@@H](CC1COc2c(C)cccc21)B(O)O)c1ccccc1 (stereo partly drawn) [Compound No. 109, [(1R)-1-[[(2R)-2-ethoxy-2-phenyl-acetyl]amino]-2-(7-methyl-2,3-dihydrobenzofuran-3-yl)ethyl]boronic acid] | +++++ (Selectivity ≥ 100) | > 5000 nM | < 50 nM
21 | O=C(Cc1ccccc1)N[C@@H](Cc1cc2ccccc2o1)B(O)O [Compound No. 110, [(1R)-2-(benzofuran-2-yl)-1-[(2-phenylacetyl)amino]ethyl]boronic acid] | ++++ (70 ≤ Selectivity < 100) | > 5000 nM | 50 to 500 nM
22 | CCO[C@@H](C(=O)N[C@@H](CC1COc2ccccc21)B(O)O)c1ccccc1 (stereo partly drawn) [Compound No. 111, [(1R)-2-(2,3-dihydrobenzofuran-3-yl)-1-[[(2R)-2-ethoxy-2-phenyl-acetyl]amino]ethyl]boronic acid] | +++++ (Selectivity ≥ 100) | > 5000 nM | < 50 nM
23 | O=C(Cc1ccccn1)NC(Cc1coc2ccccc12)B(O)O (centres unmarked) [Compound No. 112, [2-(benzofuran-3-yl)-1-[[2-(2-pyridyl)acetyl]amino]ethyl]boronic acid] | +++++ (Selectivity ≥ 100) | 500 to 5000 nM | < 50 nM
24 | CCOc1ccc(CC(=O)N[C@@H](Cc2coc3c(Cl)cccc23)B(O)O)nc1 [Compound No. 113, [(1R)-2-(7-chlorobenzofuran-3-yl)-1-[[2-(5-ethoxy-2-pyridyl)acetyl]amino]ethyl]boronic acid] | +++++ (Selectivity ≥ 100) | 500 to 5000 nM | < 50 nM
25 | COc1ccc(CC(=O)N[C@@H](C[C@@H]2COc3ccccc32)B(O)O)cc1 [Compound No. 114, [(1R)-2-[(3S)-2,3-dihydrobenzofuran-3-yl]-1-[[2-(4-methoxyphenyl)-acetyl]amino]ethyl]boronic acid] | +++++ (Selectivity ≥ 100) | 500 to 5000 nM | < 50 nM
26 | COc1ccc(CC(=O)N[C@@H](C[C@H]2COc3ccccc32)B(O)O)cc1 [Compound No. 115, [(1R)-2-[(3R)-2,3-dihydrobenzofuran-3-yl]-1-[[2-(4-methoxyphenyl)-acetyl]amino]ethyl]boronic acid] | +++++ (Selectivity ≥ 100) | > 5000 nM | < 50 nM
27 | N#Cc1ccccc1CC(=O)N[C@@H](Cc1coc2c(Cl)cccc12)B(O)O [Compound No. 116, [(1R)-2-(7-chlorobenzofuran-3-yl)-1-[[2-(2-cyanophenyl)acetyl]amino]-ethyl]boronic acid] | +++++ (Selectivity ≥ 100) | 500 to 5000 nM | < 50 nM
